Measured values from patent US20260216238A1, “TETRATHIOMOLYBDIC ACID FOR USE IN TREATING COPPER METABOLISM-ASSOCIATED DISEASES OR DISORDERS (WILSON DISEASE)” (Alexion Pharmaceuticals, Inc., priority 2023, published 2026).
Where two headings read alike, the source gives them in different places.

Experiments:
[1] = tested on: patients with Wilson disease (WD); conditions: in vivo
[2] = tested on: participants with WD
Source text: The term “dNCC” refers to NCC as directly measured using an NCC assay. For example, in certain embodiments of the methods, uses, or compositions (e.g., comprising tetrathiomolybdic acid or a pharmaceutically acceptable salt thereof) of the disclosure, dNCC is directly measured using the NCC assay as disclosed in PCT Patent Application Publication No. WO2021/050850, filed on Sep.
These participants had all intake (food and drink) and output (urine and feces) collected from Day −4 through Day −1 (baseline), from Day 1 through Day 8, and Day 25 through Day 39.

bis-choline tetrathiomolybdate [TTM]
AEs in SOC Investigations [1]: 29.5% | AEs in SOC Metabolism and nutrition disorders [1]: 11.5% | AEs in SOC Skin and subcutaneous tissue disorders [1]: 13.1% | Affective disorder, E (events) [1]: 0 | Affective disorder, participants with AE [1]: 0 N (%) | Alanine aminotransferase increased AE, % participants [1]: 19.7% | Alanine aminotransferase increased AE, E events [1]: 14 | Alanine aminotransferase increased AE, N participants [1]: 12 | Anxiety, E (events) [1]: 1 | Anxiety, participants with AE [1]: 1 (1.6) N (%) | Aspartate aminotransferase increased AE, % participants [1]: 6.6% | Aspartate aminotransferase increased AE, E events [1]: 4 | Aspartate aminotransferase increased AE, N participants [1]: 4 | Attention deficit hyperactivity disorder, E (events) [1]: 0 | Attention deficit hyperactivity disorder, participants with AE [1]: 0 N (%) | Blood and lymphatic system disorders, E (events) [1]: 18 | Blood and lymphatic system disorders, participants with AE [1]: 7 (11.5) N (%) | Cardiac disorders, E (events) [1]: 5 | Cardiac disorders, participants with AE [1]: 3 (4.9) N (%) | Congenital, familial, and genetic disorders, E (events) [1]: 0 | Congenital, familial, and genetic disorders, participants with AE [1]: 0 N (%) | Dyslipidemia AE, % participants [1]: 1.6% | Dyslipidemia AE, E events [1]: 1 | Dyslipidemia AE, N participants [1]: 1 | Ear and labyrinth disorders, E (events) [1]: 1 | Ear and labyrinth disorders, participants with AE [1]: 1 (1.6) N (%) | Eczema AE, % participants [1]: 1.6% | Eczema AE, E events [1]: 1 | Eczema AE, N participants [1]: 1 | Eye disorders, E (events) [1]: 0 | Eye disorders, participants with AE [1]: 0 N (%) | Fatigue AE, % participants [1]: 8.2% | Fatigue AE, E events [1]: 5 | Fatigue AE, N participants [1]: 5 | Gamma-glutamyltransferase increased AE, % participants [1]: 4.9% | Gamma-glutamyltransferase increased AE, E events [1]: 3 | Gamma-glutamyltransferase increased AE, N participants [1]: 3 | Gastrointestinal disorders, E (events) [1]: 30 | Gastrointestinal disorders, participants with AE [1]: 18 (29.5) N (%) | Hand dermatitis AE, % participants [1]: 1.6% | Hand dermatitis AE, E events [1]: 1 | Hand dermatitis AE, N participants [1]: 1 | Hepatic enzyme increased AE, N participants [1]: 3 | Hepatobiliary disorders, E (events) [1]: 3 | Hepatobiliary disorders, participants with AE [1]: 2 (3.3) N (%) | Hyperlipidaemia AE, % participants [1]: 1.6% | Hyperlipidaemia AE, E events [1]: 1 | Hyperlipidaemia AE, N participants [1]: 1 | Hypertriglyceridaemia AE, % participants [1]: 1.6% | Hypertriglyceridaemia AE, E events [1]: 3 | Hypertriglyceridaemia AE, N participants [1]: 1 | Infections and infestations, E (events) [1]: 23 | Infections and infestations, participants with AE [1]: 17 (27.9) N (%) | Injury, poisoning and procedural complications, E (events) [1]: 13 | Injury, poisoning and procedural complications, participants with AE [1]: 7 (11.5) N (%) | Investigations (SOC) AE, % participants [1]: 29.5% | Investigations (SOC) AE, E events [1]: 29 | Investigations (SOC) AE, N participants [1]: 18 | Metabolism and nutrition disorders (SOC) AE, % participants [1]: 11.5% | Metabolism and nutrition disorders (SOC) AE, E events [1]: 10 | Metabolism and nutrition disorders (SOC) AE, N participants [1]: 7 | Neoplasms benign, malignant, and unspecified (incl cysts and polyps), E (events) [1]: 1 | Neoplasms benign, malignant, and unspecified (incl cysts and polyps), participants with AE [1]: 1 (1.6) N (%) | Nervous system disorders, E (events) [1]: 12 | Nervous system disorders, participants with AE [1]: 11 (18.0) N (%) | Neutrophil count decreased AE, % participants [1]: 1.6% | Neutrophil count decreased AE, E events [1]: 1 | Neutrophil count decreased AE, N participants [1]: 1 | Post-traumatic stress disorder, E (events) [1]: 1 | Post-traumatic stress disorder, participants with AE [1]: 1 (1.6) N (%) | Product issues, E (events) [1]: 0 | Product issues, participants with AE [1]: 0 N (%) | Pruritus AE, % participants [1]: 3.3% | Pruritus AE, E events [1]: 2 | Pruritus AE, N participants [1]: 2 | Psychiatric disorders, E (events) [1]: 3 | Psychiatric disorders, participants with AE [1]: 3 (4.9) N (%) | Pyrexia AE, % participants [1]: 1.6% | Pyrexia AE, E events [1]: 1 | Pyrexia AE, N participants [1]: 1 | Rash AE, % participants [1]: 1.6% | Rash AE, E events [1]: 5 | Rash AE, N participants [1]: 1 | Rash pruritic AE, % participants [1]: 1.6% | Rash pruritic AE, E events [1]: 1 | Rash pruritic AE, N participants [1]: 1 | Renal and urinary disorders, E (events) [1]: 2 | Renal and urinary disorders, participants with AE [1]: 1 (1.6) N (%) | Reproductive system and breast disorders, E (events) [1]: 0 | Reproductive system and breast disorders, participants with AE [1]: 0 N (%) | Respiratory, thoracic, and mediastinal disorders, E (events) [1]: 4 | Respiratory, thoracic, and mediastinal disorders, participants with AE [1]: 3 (4.9) N (%) | Restlessness, E (events) [1]: 0 | Restlessness, participants with AE [1]: 0 N (%) | Skin and subcutaneous tissue disorders (SOC) AE, % participants [1]: 13.1% | Skin and subcutaneous tissue disorders (SOC) AE, E events [1]: 15 | Skin and subcutaneous tissue disorders (SOC) AE, N participants [1]: 8 | Sleep disorder, E (events) [1]: 1 | Sleep disorder, participants with AE [1]: 1 (1.6) N (%) | Vascular disorders, E (events) [1]: 5 | Vascular disorders, participants with AE [1]: 3 (4.9) N (%) | Increase from Baseline in Directly Measured NCC, Mean ([2]; Day 1, 2 Hours Post-Dose): 0.5004 µmol/L | Increase from Baseline in Directly Measured NCC, Mean ([2]; Day 1, 4 Hours Post-Dose): 1.96 µmol/L | Increase from Baseline in Directly Measured NCC, Mean ([2]; Day 1, 5 Hours Post-Dose): 2.719 µmol/L | Increase from Baseline in Directly Measured NCC, Mean ([2]; Day 1, 6 Hours Post-Dose): 2.324 µmol/L | Increase from Baseline in Directly Measured NCC, Mean ([2]; Day 1, 8 Hours Post-Dose): 2.402 µmol/L | Increase from Baseline in Directly Measured NCC, Mean ([2]; Day 1, 12 Hours Post-Dose): 1.725 µmol/L | Increase from Baseline in Directly Measured NCC, Mean ([2]; Day 1, 24 Hours Post-Dose): 1.063 µmol/L | Increase from Baseline in Directly Measured NCC, Mean ([2]; Day 4, Pre-Dose): 2.677 µmol/L | Increase from Baseline in Directly Measured NCC, Mean ([2]; Day 5, Pre-Dose): 3.144 µmol/L | Increase from Baseline in Directly Measured NCC, Mean ([2]; Day 6, Pre-Dose): 3.574 µmol/L | Increase from Baseline in Directly Measured NCC, Mean ([2]; Day 7, Pre-Dose): 3.7 µmol/L | Increase from Baseline in Directly Measured NCC, Mean ([2]; Day 25, 2 Hours Post-Dose): 2.551 µmol/L | Increase from Baseline in Directly Measured NCC, Mean ([2]; Day 25, 4 Hours Post-Dose): 3.443 µmol/L | Increase from Baseline in Directly Measured NCC, Mean ([2]; Day 25, 5 Hours Post-Dose): 3.38 µmol/L | Increase from Baseline in Directly Measured NCC, Mean ([2]; Day 25, 6 Hours Post-Dose): 4.44 µmol/L | Increase from Baseline in Directly Measured NCC, Mean ([2]; Day 25, 8 Hours Post-Dose): 5.101 µmol/L | Increase from Baseline in Directly Measured NCC, Mean ([2]; Day 25, 12 Hours Post-Dose): 4.917 µmol/L | Increase from Baseline in Directly Measured NCC, Mean ([2]; Day 25, 24 Hours Post-Dose): 3.438 µmol/L | Increase from Baseline in Directly Measured NCC, Mean ([2]; Day 25, −0.5 Hours): 2.121 µmol/L | Increase from Baseline in Directly Measured NCC, Mean ([2]; Day 27, Pre-Dose, N=2): 2.767 µmol/L | Increase from Baseline in Directly Measured NCC, Mean ([2]; Day 28, Pre-Dose, N=2): 2.327 µmol/L | Increase from Baseline in Directly Measured NCC, Mean ([2]; Day 29, 2 Hours Post-Dose): 2.814 µmol/L | Increase from Baseline in Directly Measured NCC, Mean ([2]; Day 29, 4 Hours Post-Dose): 3.38 µmol/L | Increase from Baseline in Directly Measured NCC, Mean ([2]; Day 29, 5 Hours Post-Dose): 4.078 µmol/L | Increase from Baseline in Directly Measured NCC, Mean ([2]; Day 29, 6 Hours Post-Dose): 4.686 µmol/L | Increase from Baseline in Directly Measured NCC, Mean ([2]; Day 29, 8 Hours Post-Dose): 5.305 µmol/L | Increase from Baseline in Directly Measured NCC, Mean ([2]; Day 29, 12 Hours Post-Dose): 4.749 µmol/L | Increase from Baseline in Directly Measured NCC, Mean ([2]; Day 29, 24 Hours Post-Dose): 3.543 µmol/L | Increase from Baseline in Directly Measured NCC, Mean ([2]; Day 29, −0.5 Hours): 2.662 µmol/L | Increase from Baseline in Directly Measured NCC, Mean ([2]; Day 31, Pre-Dose, N=2): 4.121 µmol/L | Increase from Baseline in Directly Measured NCC, Mean ([2]; Day 32, Pre-Dose, N=1): 8.131 µmol/L | Increase from Baseline in Directly Measured NCC, Mean ([2]; Day 33, Pre-Dose, N=2): 4.231 µmol/L | Increase from Baseline in Directly Measured NCC, Mean ([2]; Day 34, Pre-Dose, N=2): 4.103 µmol/L | Increase from Baseline in Directly Measured NCC, Mean ([2]; Day 35, Pre-Dose, N=2): 4.49 µmol/L | Increase from Baseline in Directly Measured NCC, Mean ([2]; Day 36, Pre-Dose, N=2): 3.465 µmol/L | Increase from Baseline in Directly Measured NCC, Mean ([2]; Day 37, Pre-Dose, N=2): 4.168 µmol/L | Increase from Baseline in Directly Measured NCC, Mean ([2]; Day 38, Pre-Dose, N=1): 7.643 µmol/L | Increase from Baseline in Directly Measured NCC, Mean ([2]; Day 39, 2 Hours Post-Dose): 3.816 µmol/L | Increase from Baseline in Directly Measured NCC, Mean ([2]; Day 39, 4 Hours Post-Dose): 5.578 µmol/L | Increase from Baseline in Directly Measured NCC, Mean ([2]; Day 39, 5 Hours Post-Dose): 6.26 µmol/L | Increase from Baseline in Directly Measured NCC, Mean ([2]; Day 39, 6 Hours Post-Dose): 6.659 µmol/L | Increase from Baseline in Directly Measured NCC, Mean ([2]; Day 39, 8 Hours Post-Dose): 7.32 µmol/L | Increase from Baseline in Directly Measured NCC, Mean ([2]; Day 39, 12 Hours Post-Dose): 6.554 µmol/L | Increase from Baseline in Directly Measured NCC, Mean ([2]; Day 39, 24 Hours Post-Dose): 4.545 µmol/L | Increase from Baseline in Directly Measured NCC, Mean ([2]; Day 39, −0.5 Hours): 3.412 µmol/L
